Patent US8952024B2, “Herbicidal pyrimidone derivatives” (E I du Pont de Nemours and Company, priority 2009, dated 2015)

Columns and labels:
Assay in all cases: Test B pre-/postemergence plant response
Assay type in all cases: in vivo
[1] = test system: goosegrass (Eleusine indica); conditions: for Goosegrass plant response rating (0 to 100 scale): 62 g ai/ha, 0 is no effect
Summary of the method: (§1)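 Visual injury, 0–100 scale (100 = complete control), rated against controls after 13 to 15 days in greenhouse. Pre-emergence: seeds in loam/sand soil, treated at planting. Post-emergence: 1- to 4-leaf plants (2 to 18 cm) in peat/vermiculite medium. Compounds formulated in non-phytotoxic solvent with surfactant.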

[2] = test system: Italian ryegrass (Lolium multiflorum); conditions: for Plant response rating, Ryegrass, Italian: Postemergence; for Ryegrass, Italian plant response rating (0 to 100 scale): 62 g ai/ha, postemergence, 0 is no effect, 100 is complete control
Summary of the method: as §1

corn (Zea mays) = conditions: for Corn plant response rating (0 to 100 scale): 62 g ai/ha, 0 is no effect
Summary of the method: as §1

[3] = test system: large crabgrass (Digitaria sanguinalis); conditions: for Crabgrass, Large plant response rating (0 to 100 scale): 62 g ai/ha, 0 is no effect
Summary of the method: as §1

[4] = test system: pigweed (Amaranthus retroflexus); conditions: for Pigweed plant response rating (0 to 100 scale): 62 g ai/ha, 0 is no effect
Summary of the method: as §1

[5] = test system: Surinam grass (Brachiaria decumbens); conditions: for Plant response rating, Surinam Grass: Postemergence; for Surinam Grass plant response rating (0 to 100 scale): 62 g ai/ha, postemergence, 0 is no effect, 100 is complete control
Summary of the method: as §1

[6] = test system: woolly cupgrass (Eriochloa villosa); conditions: for Cupgrass, Woolly plant response rating (0 to 100 scale): 62 g ai/ha, 0 is no effect
Summary of the method: as §1

[7] = test system: lambsquarters (Chenopodium album); conditions: for Lambsquarters plant response rating (0 to 100 scale): 62 g ai/ha, 0 is no effect
Summary of the method: as §1

[8] = 16 g ai/ha, Postemergence, 0 to 100 scale
[9] = postemergence, 100 is complete control, 13 to 15 days
[10] = Postemergence, 31 g ai/ha, 0 to 100 scale (0 no effect, 100 complete control)
[11] = Postemergence, 125 g ai/ha, scale 0 to 100 (0 no effect, 100 complete control)
[12] = 31 g ai/ha, 0 to 100 scale (0 no effect, 100 complete control)
[13] = 125 g ai/ha, scale 0 to 100 (0 no effect, 100 complete control)
[14] = 31 g ai/ha, postemergence, scale 0 to 100, 0 is no effect, 100 is complete control
[15] = Postemergence, 250 g ai/ha, scale 0 to 100 (0 no effect, 100 complete control)
[16] = 250 g ai/ha, scale 0 to 100 (0 no effect, 100 complete control)
[17] = Postemergence, 250 g ai/ha, scale 0 to 100 (0 no effect, 100 complete control), 13 to 15 days
[18] = 250 g ai/ha, scale 0 to 100 (0 no effect, 100 complete control), 13 to 15 days

| Structure (SMILES) | Goosegrass plant response rating (0 to 100 scale) [1, 9] | Plant response rating, Goosegrass [1, 10] | Plant response rating, Goosegrass [1, 11] | Ryegrass, Italian plant response rating (0 to 100 scale) ([2]; 13 to 15 days) | Plant response rating, Ryegrass, Italian [2, 12] | Plant response rating, Ryegrass, Italian [2, 13] | Corn plant response rating (0 to 100 scale) (corn (Zea mays); [9]) | Plant response rating, Corn (corn (Zea mays); [10]) | Plant response rating, Corn (corn (Zea mays); [11]) | Crabgrass, Large plant response rating (0 to 100 scale) [3, 9] | Plant response rating, Crabgrass, Large [3, 10] | Plant response rating, Crabgrass, Large [3, 11] | Pigweed plant response rating (0 to 100 scale) [4, 9] | Plant response rating, Pigweed [4, 11] | Surinam Grass plant response rating (0 to 100 scale) ([5]; 13 to 15 days) | Plant response rating, Surinam Grass [5, 13] | Cupgrass, Woolly plant response rating (0 to 100 scale) [6, 9] | Plant response rating, Cupgrass, Woolly [6, 11] | Lambsquarters plant response rating (0 to 100 scale) [7, 9] | Plant response rating, Lambsquarters [7, 11] | other results |
| --- | --- | --- | --- | --- | --- | --- | --- | --- | --- | --- | --- | --- | --- | --- | --- | --- | --- | --- | --- | --- | --- |
| CCn1c(-c2cc(F)cc(F)c2)ncc(C(=O)C2=C(O)CCCC2=O)c1=O [Compound 122] | 65 | 40 | 70 | 10 | 5 | 40 | 15 | 0 | 25 | 75 | 75 | 85 | 90 | 98 | 75 | 90 | 70 | 75 | 65 | 90 | Plant response rating, Goosegrass [1, 8]: 10; Plant response rating, Ryegrass, Italian ([2]; 16 g ai/ha, 0 to 100 scale): 5; Plant response rating, Corn (corn (Zea mays); [8]): 0; Plant response rating, Crabgrass, Large [3, 8]: 65; Plant response rating, Pigweed [4, 8]: 75; Plant response rating, Pigweed [4, 10]: 85; Plant response rating, Surinam Grass ([5]; 16 g ai/ha, 0 to 100 scale): 25; Plant response rating, Surinam Grass [5, 12]: 75; Plant response rating, Cupgrass, Woolly [6, 8]: 65; Plant response rating, Cupgrass, Woolly [6, 10]: 65; Plant response rating, Lambsquarters [7, 8]: 55; Plant response rating, Lambsquarters [7, 10]: 60 |
| O=C1CCCC(O)=C1C(=O)c1cnc(-c2ccsc2)n(CC2CCCO2)c1=O (stereo not shown) [Compound 98] | 75 |  | 80 | 5 |  | 15 | 35 |  | 55 | 75 |  | 80 | 100 | 100 | 75 | 85 | 70 | 75 | 98 | 100 | Plant response rating, Goosegrass [1, 14]: 60; Plant response rating, Goosegrass [1, 15]: 90; Plant response rating, Ryegrass, Italian [2, 16]: 15; Plant response rating, Corn (corn (Zea mays); [14]): 35; Plant response rating, Corn (corn (Zea mays); [15]): 70; Plant response rating, Crabgrass, Large [3, 14]: 75; Plant response rating, Crabgrass, Large [3, 15]: 95; Plant response rating, Pigweed [4, 14]: 100; Plant response rating, Pigweed [4, 15]: 100; Plant response rating, Surinam Grass [5, 16]: 90; Plant response rating, Cupgrass, Woolly [6, 14]: 65; Plant response rating, Cupgrass, Woolly [6, 15]: 95; Plant response rating, Lambsquarters [7, 14]: 95; Plant response rating, Lambsquarters [7, 15]: 100 |
| O=C1CCCC(O)=C1C(=O)c1cnc(-c2ccccc2)n(C2CCCCCC2)c1=O [Compound 130] | 85 | 85 | 95 | 0 | 0 | 0 | 60 | 55 | 80 | 85 | 85 | 95 | 98 | 100 | 80 | 80 | 85 | 85 | 100 | 100 | Plant response rating, Goosegrass [1, 17]: 95; Plant response rating, Ryegrass, Italian [2, 18]: 5; Plant response rating, Corn (corn (Zea mays); [17]): 80; Plant response rating, Crabgrass, Large [3, 17]: 100; Plant response rating, Pigweed [4, 10]: 95; Plant response rating, Pigweed [4, 17]: 100; Plant response rating, Surinam Grass [5, 12]: 80; Plant response rating, Surinam Grass [5, 18]: 90; Plant response rating, Cupgrass, Woolly [6, 10]: 80; Plant response rating, Cupgrass, Woolly [6, 17]: 90; Plant response rating, Lambsquarters [7, 10]: 98; Plant response rating, Lambsquarters [7, 17]: 100 |
